# Experimental data published in US11730746B2, “17beta-heterocyclyl-digitalis like compounds for the treatment of heart failure” (priority 2018, dated 2023).
# Columns and labels:
# [1] = tested on: guinea pig isolated cardiomyocytes; experiment: SR Ca2+ uptake function (loading protocol) in isolated ventricular cardiomyocytes; assay type: cell-based; conditions: 100 nM
# Description: (§1) The compounds were characterized for their effect on (i) SR Ca^2+ uptake function, (ii) action potential (AP) in myocytes freshly dissociated from guinea-pig ventricles by retrograde coronary perfusion with enzymatic solution (Rocchetti M et al. J Pharmacol Exper Therap 2005; 313(1):207-215).
# Drug effects on SR Ca^2+ uptake rate were evaluated with an SR “loading protocol” specifically devised to rule out the contribution of the Na/Ca exchanger (NCX) and to assess the uptake rate starting at low levels of SR Ca^2+ loading. Under voltage-clamp conditions, intracellular Ca^2+ concentration was dynamically measured by epifluorescence (Fluo4-AM). Membrane current, whose time-dependent component mainly reflected ICaL, was simultaneously recorded. The SR loading protocol consisted in emptying the SR (by a brief caffeine pulse) and then progressively refilling it by voltage steps activating Ca^2+ influx through the sarcolemmal Ca^2+ channel (ICaL). NCX was blocked by omission of Na^+ from intracellular and extracellular solutions. The procedure is in agreement with published methods, with minor modifications (Rocchetti M et al. J Pharmacol Exper Therap 2005; 313(1):207-215).
# Drug effects on SR Ca^2+ uptake were analysed by considering multiple parameters: 1) the rate at which Ca^2+ transient (CaT) amplitude increased during the loading protocol, which reflects the rate at which the SR refilled and 2) the time constant of cytosolic Ca^2+ decay (Tdecay) within each pulse, reflecting net Ca^2+ transport rate (by SERCA2a) across the SR membrane (a decrease in Tdecay corresponds to enhanced SR Ca^2+ uptake).
# [2] = tested on: guinea pig isolated cardiomyocytes; experiment: Action potential measurements in isolated ventricular cardiomyocytes; assay type: cell-based; conditions: 100 nM
# From the text: as §1
# The action potential (AP) contour provides a first-line estimate of the integrated function of membrane ion channels and its changes may disclose ancillary actions, potentially resulting in untoward effects of the compound. To increase sensitivity of the AP contour as a reporter, effects on the rate-dependency of AP parameters were also tested, thus providing a multiparametric (more stringent) approach.
# APs were recorded in normal Tyrode's solution at 36.5° C. The following parameters were measured at 4 stimulation rates (0.5-1-2-4 Hz): diastolic membrane potential (Edlast), maximum depolarization velocity (dV/dtmax), action potential duration (APD at 90%, 50% and 20% of repolarization), time constant (τ) of APD adaptation after a step change in stimulation rate. Short term APD variability (STV) during steady-state pacing, an index of repolarization stability, was measured as the sum of absolute ortogonal deviations from the identity line in the APDnfAPDn+1 plot (Poincare plot) (Altomare C et al, Circulation A&E 2015; 8:1265-1275).
# Dopamine D2s = target: T1, Dopamine D2s (Homo sapiens, UniProt P14416); experiment: Receptor binding 219700
# T1 construct: Eurofins 219700; host or cells: crude membrane preparation
# Description: Radioligand binding to a panel of receptors was carried out by Eurofins on crude membrane preparations according to published procedures and by using appropriate reference standard (Eurofins, CVie 101 compound code PT #1207859, study #AB76416, quote #68407-1, for Cvie Therapeutics Limited, Taiwan (R.OC.) on Mar. 5, 2017). CVie 101 was tested at the concentration of 10 μM. No significant interaction was documented, except for Sodium Channel, site 2 from rat (cat #279510), where a significant response (≥50%) was noted (Table 7).
# [3] = tested on: ATPase, Ca++, skeletal muscle, pig; experiment: Eurofins panel 107480; assay type: biochemical; conditions: 10 μM
# T1 sequence (P14416 1-414 isoform P14416-2): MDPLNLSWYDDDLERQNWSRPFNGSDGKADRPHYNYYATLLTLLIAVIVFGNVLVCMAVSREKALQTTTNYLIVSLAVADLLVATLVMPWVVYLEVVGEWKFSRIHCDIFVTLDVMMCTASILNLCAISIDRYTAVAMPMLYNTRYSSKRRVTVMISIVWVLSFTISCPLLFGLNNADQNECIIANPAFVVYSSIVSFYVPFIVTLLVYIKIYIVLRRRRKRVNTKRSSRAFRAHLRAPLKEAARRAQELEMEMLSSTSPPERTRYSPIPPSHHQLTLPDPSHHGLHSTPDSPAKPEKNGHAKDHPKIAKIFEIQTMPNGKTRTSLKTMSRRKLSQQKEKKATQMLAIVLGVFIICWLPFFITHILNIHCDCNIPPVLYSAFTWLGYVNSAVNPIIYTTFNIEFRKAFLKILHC
structure (smiles),measurement,setting,value
"C[C@]12CC[C@H](O)C[C@H]1CCC1C2CC[C@]2(C)[C@@H](c3c[nH]cn3)CC[C@]12O (stereo partly drawn) [CVie 101, 3β-hydroxy-5β-10β-methyl-13β-methyl-14β-hydroxy-17β-(imidazol-4-yl)androstane]",rate of Ca2+ transient (CaT) increment during SR reloading,"[1]; FIG. 1A, 1C",increased
same,time constant of cytosolic Ca2+ decay within each pulse (τdecay),"[1]; FIG. 1B, 1D",decreased
same,short term APD variability (STV),"[2]; 0.5-1-2-4 Hz separately or pooled, FIG. 3",unaffected
same,diastolic membrane potential (Ediast),"[2]; 0.5-1-2-4 Hz, FIG. 2A",did not affect
same,maximum depolarization velocity (dV/dtmax),[2]; FIG. 2B,did not affect
same,"action potential duration (APD at 90%, 50% and 20% of repolarization) and its cycle-length dependency",[2]; FIG. 2C,did not affect
same,time constant of APD adaptation after a step change in cycle length,[2]; FIG. 2D,not shortened
same,inhibition at 10 µM,Dopamine D2s,4%
same,% inhib,[3],14%
